Results from patent US20060079453A1, “Hla binding peptides and their uses” (priority 2002, published 2006).
Like-named read-outs stand apart in the source and are kept apart here. No end group written: not given here.

Legend:
Assay in all cases: biochemical
Type in all cases: binding
HLA-DR DRB4*0101 (DR53) = HLA-DR DRB4*0101 (DR53) (Homo sapiens, UniProt P01903+P13762, G164S)
HLA-DR DRB1*1101 (DR11) = HLA-DR DRB1*1101 (DR11) (Homo sapiens, UniProt P01903+P01911, A100R/A169T/A87E/I96F/K41T/L162R/M171V/P40S/Q125H/Q178H/Q39Y/Q99D/R42S/S66Y/T262R/V115G/W38E)
Sequence of HLA-DR DRB1*1101 (DR11) (P01903 26-254 limits assumed, other chains not shown): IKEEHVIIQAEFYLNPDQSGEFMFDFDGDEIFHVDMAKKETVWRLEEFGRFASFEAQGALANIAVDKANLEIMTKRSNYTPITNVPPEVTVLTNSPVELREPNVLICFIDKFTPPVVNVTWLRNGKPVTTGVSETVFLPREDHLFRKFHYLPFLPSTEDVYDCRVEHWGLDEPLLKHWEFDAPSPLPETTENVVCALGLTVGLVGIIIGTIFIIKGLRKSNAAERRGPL

HLA-DR DRB1*0301 (DR3) = HLA-DR DRB1*0301 (DR3) (Homo sapiens, UniProt P01903+P01911, A100K/A102G/A103R/A169T/F55Y/I96L/K41T/L162R/M171V/P40S/Q125H/Q178H/Q39Y/R42S/S66N/T106N/T262R/W38E/Y61H)
Sequence of HLA-DR DRB1*0301 (DR3) (P01903 26-254 limits assumed, other chains not shown): as above

HLA-DR DRB1*0901 (DR9) = HLA-DR DRB1*0901 (DR9) (Homo sapiens, UniProt P01903+P01911, A100R/A103E/D57H/D86V/F55Y/F60I/F76Y/I96F/K127E/L162R/M171V/P40D/Q125H/Q99R/R33Q/R42F/S133A/S66N/T210M/V115G/W38K/Y107V/Y59G/Y89S)
HLA-DR DRB1*0802 (DR8) = HLA-DR DRB1*0802 (DR8) (Homo sapiens, UniProt P01903+P01911, A100R/A103L/A169T/F76Y/H45Y/I96F/K41T/L162R/M171V/P40S/Q125H/Q178H/Q39Y/Q99D/R218S/R42G/S66Y/V115G/W38E)
HLA-DR DRB1*0401 (DR4) = HLA-DR DRB1*0401 (DR4) (Homo sapiens, UniProt P01903+P01911, A100K/A169T/F76Y/I96L/K127E/L162R/M171V/N62H/P40V/Q125Y/R42H/S133A/S149N/S66Y/V115G/V209L/W38E)
HLA-DR DRB5*0101 (DR51) = HLA-DR DRB5*0101 (DR51) (Homo sapiens, UniProt P01903+Q30154)
HLA-DR DRB1*0701 (DR7) = HLA-DR DRB1*0701 (DR7) (Homo sapiens, UniProt P01903+P01911, A100R/A102G/A103Q/D57E/D86V/E43K/F76Y/K127E/L162R/M171V/P40G/Q125H/Q99D/R33Q/R42Y/R54Q/S133A/S66F/T210M/V115G/Y107V/Y59L/Y89S)
HLA-DR DRB1*0101 (DR1) = HLA-DR DRB1*0101 (DR1) (Homo sapiens, UniProt P01903+P01911, A100R/D57E/F55L/F60I/F76Y/I96L/L162R/M171V/P40L/Q125E/R42F/V115G/Y59C)
HLA-DR DRB1*0405 (DR4) = HLA-DR DRB1*0405 (DR4) (Homo sapiens, UniProt P01903+P01911, A100R/A169T/D86S/F76Y/I96L/K127E/L162R/M171V/N62H/P40V/Q125Y/R42H/S133A/S149N/S66Y/V115G/V209L/W38E)
HLA-DR DRB1*1302 (DR13) = HLA-DR DRB1*1302 (DR13) (Homo sapiens, UniProt P01903+P01911, A100E/A169T/K41T/L162R/M171V/P40S/Q125H/Q178H/Q39Y/Q99D/R42S/S66N/T262R/V115G/W38E/Y61H)
Sequence of HLA-DR DRB1*1302 (DR13) (P01903 26-254 limits assumed, other chains not shown): as above

HLA-DR DRB1*1501 (DR15) = HLA-DR DRB1*1501 (DR15) (Homo sapiens, UniProt P01903+P01911); conditions: DRBI *1501

Molecule | IC50 (HLA-DR DRB1*0301 (DR3)) [µM] | IC50 (HLA-DR DRB1*0802 (DR8)) [µM] | IC50 (HLA-DR DRB4*0101 (DR53); DRB4 *0101) [µM] | IC50 (HLA-DR DRB1*1101 (DR11); DRB1 *1101) [µM] | IC50 (HLA-DR DRB1*0901 (DR9); DRB1 *0901) [µM] | IC50 (HLA-DR DRB1*0401 (DR4); DRB1 *0401) [µM] | IC50 (HLA-DR DRB1*0701 (DR7); DRB1 *0701) [µM] | IC50 (HLA-DR DRB1*0101 (DR1); DRB1 *0101) [µM] | IC50 (HLA-DR DRB1*0405 (DR4); DRB1 *0405) [µM] | IC50 (HLA-DR DRB1*1302 (DR13); DRBI *1302) [µM] | IC50 (HLA-DR DRB1*1501 (DR15)) [µM] | IC50 (HLA-DR DRB5*0101 (DR51); DRB5 *0101) [µM] | also measured
CC(C)C[C@H](N)C(=O)N[C@@H](CCC(=O)O)C(=O)N1CCC[C@H]1C(=O)N[C@@H](Cc1c[nH]c2ccccc12)C(=O)N[C@@H](CC(N)=O)C(=O)N[C@@H](Cc1c[nH]cn1)C(=O)N1CCC[C@H]1C(=O)NCC(=O)N[C@@H](CO)C(=O)N[C@@H](CCC(N)=O)C(=O)N1CCC[C@H]1C(=O)N[C@@H](CCCCN)C(=O)N[C@H](C(=O)N[C@@H](C)C(=O)N[C@@H](CS)C(=O)N[C@H](C(=O)O)[C@@H](C)O)[C@@H](C)O | > 328 | 69.2 | – | – | – | – | – | – | – | – | – | – | IC50 (HLA-DR DRB4*0101 (DR53)): 0.092 µM; IC50 (HLA-DR DRB1*1101 (DR11)): > 15.3 µM; IC50 (HLA-DR DRB1*0901 (DR9)): 34.5 µM; IC50 (HLA-DR DRB1*0401 (DR4)): > 33.3 µM; IC50 (HLA-DR DRB5*0101 (DR51)): 2.94 µM; IC50 (HLA-DR DRB1*0701 (DR7)): > 72.3 µM; IC50 (HLA-DR DRB1*0101 (DR1)): > 33.6 µM; IC50 (HLA-DR DRB1*0405 (DR4)): > 8.23 µM; IC50 (HLA-DR DRB1*1302 (DR13)): > 11 µM
VNFYAWKRMEVGQQA | 2.87 | 0.035 | 1.49 | 0.05 | 1.24 | 0.01 | 40.2 | 0.193 | 0.015 | 14.8 | – | – | –
CC[C@H](C)[C@H](NC(=O)[C@H](CCC(=O)O)NC(=O)[C@@H](NC(=O)[C@H](Cc1ccc(O)cc1)NC(=O)[C@H](CCC(=O)O)NC(=O)[C@@H](N)CCC(=O)O)C(C)C)C(=O)N[C@@H](CCCNC(=N)N)C(=O)N[C@@H](CCC(N)=O)C(=O)N[C@H](C(=O)NCC(=O)N[C@@H](CC(=O)O)C(=O)N[C@@H](Cc1ccccc1)C(=O)N[C@@H](Cc1c[nH]cn1)C(=O)O)C(C)C | 74.9 | 13.9 | 2.06 | 4.68 | 11.2 | > 5.37 | 11.3 | > 1.96 | 0.026 | > 1.9 | 2.06 | 9.75 | –
FPDWQNYTPGPGTRF | > 224 | 0.592 | 33.9 | > 51.3 | 3.01 | 23.4 | 59.6 | – | > 10.1 | > 12 | 35.1 | > 20.5 | –
FLRIVQTRSVEGSTGF | 3.94 | 0.445 | – | – | 0.778 | 0.011 | 0.0098 | 0.0064 | 0.099 | 0.0015 | 0.0098 | – | –
